The test system of series [1] is signal molecule production (HHQ, PQS). The settings on record: at 15 μM; cited from earlier work.
Series [2] has as its system virulence factor pyocyanin production. The settings on record: in cellulo; read-out: inhibition of virulence factor pyocyanin production IC50; cited from earlier work.
The subject of series [3] is production of signal molecules HHQ and PQS. The settings on record: QS inhibitors targeting PqsA; read-out: IC50, reduction of production of signal molecules HHQ and PQS; cited from earlier work.
The subject of series [4] is P. aeruginosa pyocyanin production. Put plainly: Pyocyanin assay. The series is classed as cell-based. The settings on record: Pseudomonas aeruginosa, PA14, 16 h, read-out: IC50-value towards pyocyanin production, PA14 in PPGAS medium, 16 h. The procedure:
Inhibition of P. aeruginosa pyocyanin production by compounds was determined photometrically as described before. In short, an overnight culture of PA14 in PPGAS medium was washed, diluted in medium to a start OD600 of 0.02, and incubated for 16 h (37° C., 200 rpm, relative humidity 75%) in the presence of test compounds. Then, cultures were extracted with chloroform and re-extracted with 0.2 M HCl. Protonated red colored pyocyanin was determined by measuring OD520 and normalizing to OD600.

Series [5] is described as follows: Kinetic Turbidimetric Aqueous Solubility. It is filed as physicochemical. The settings on record: aqueous buffer, kinetic from dmso stock, PBS buffer, room temperature. The procedure: Kinetic Turbidimetric Aqueous Solubility at room temperature for 5 min. Test compound was diluted in PBS buffer to give a range of concentrations (typically 0.4, 2, 4, 20, 40, 100, and 200 μM, final DMSO concentration 2%) and incubated at room temperature for 5 min. Absorbance was measured at a wavelength of 620 nm and the solubility was estimated from the concentration of test compound that produces an increase in absorbance above the vehicle control (i.e., […]). Data was analyzed by fitting a four parameter sigmoidal function to the measured and normalized absorbances and AUC calculation providing access to Log S (decadic logarithm of the solubility).

A short description of series [6]: Metabolic stability in mouse liver microsomes (MLM). The series is classed as in vitro ADME. The settings on record: 1 μM compound, 0.5 mg/mL MLM, 1 mM NADPH, 37° C., read-out: half-life (t1/2) towards MLM. The procedure:
For the evaluation of phase I metabolic stability, the compound (1 μM) was incubated with 0.5 mg/mL MLM (Corning) and 1 mM NADPH at 37° C. for 0, 5, 10, 15 and 30 min. The metabolic stability of Verapamil, Diphenhydramine and Benzydamine (1 μM each) were determined in parallel to confirm the enzymatic activity of the MLM. The incubation was stopped by addition of 2 volumes of acetonitrile containing internal standard (1 μM Leucine Enkephaline). Samples were centrifuged (15 min, 3,500 rpm). Concentration of the remaining test compound at the different time points was analyzed by HPLC-MS/MS and used to determine half-life (t1/2).
(In general: Liver microsomes are vesicles of endoplasmic reticulum, rich in cytochrome P450 enzymes.)

Series [7] deals with T1, PqsR (Pseudomonas aeruginosa, UniProt Q9I4X0).
T1 construct: expressed in transfected cells; host or cells: Escherichia coli DH5a carrying pEAL08-2
Put plainly: PqsR inverse agonistic activity, reporter gene assay in E. coli. The series is classed as cell-based. The procedure:
Inhibition of pqsR-dependent gene expression of test compounds was determined in an E. coli based-galactosidase reporter gene assay. Escherichia coli DH5a was transfected with pEAL08-2 plasmid encoding pqsR under control of promoter tac and β-galactosidase reporter gene lacZ under control of promoter pqsA. Antagonistic effects of compounds were evaluated in the presence of/in competition to 50 nM PQS. A positive control was used to ensure the reliability of individual assays. First, PQS was diluted in methanol and added to the wells of a glass coated 96-deep-well plate, and the solvent was evaporated. Then, compounds were added in 5 μL DMSO to final concentrations of 0.001-10 μM. Overnight cultures of E. coli DH5a×pEAL08-2 were diluted 1:100 in LB medium with ampicillin (50 μg/ml) and incubated at 37° C. with shaking until it reached an OD600 of 0.2. Finally, 995 μL of culture was added to each well and the β-galactosidase activity was determined by ortho-nitrophenyl-β-galactoside conversion in permeabilized cells after a 2.5 h incubation period (37° C., 180 rpm). OD600, OD420, and OD550 were measured using POLARstar Omega (BMG Labtech, Ortenberg, Germany), and the activity was expressed as ratio of the slope of B-galactosidase activity between basal control (no PQS) and solvent control. IC50 values of antagonists were determined by variation of the concentration of the test compounds.
A general note: A reporter such as luciferase makes a cellular process visible.

T1 sequence (Q9I4X0 whole entry): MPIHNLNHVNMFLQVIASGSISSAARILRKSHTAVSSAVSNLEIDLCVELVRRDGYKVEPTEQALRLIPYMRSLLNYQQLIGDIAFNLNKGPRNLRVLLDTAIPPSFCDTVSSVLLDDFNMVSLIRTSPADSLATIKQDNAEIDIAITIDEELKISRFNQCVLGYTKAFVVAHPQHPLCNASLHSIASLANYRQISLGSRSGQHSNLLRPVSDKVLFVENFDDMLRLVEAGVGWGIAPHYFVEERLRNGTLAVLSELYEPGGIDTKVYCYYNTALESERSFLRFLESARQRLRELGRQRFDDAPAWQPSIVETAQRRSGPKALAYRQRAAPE

The term IC50 denotes the concentration that inhibits the measured activity by half. For the compound `CCCCCCCc1[nH]c2ccc([N+](=O)[O-])cc2c(=O)c1C(N)=O` [2-heptyl-6-nitro-4-oxo-1,4-dihydroquinoline-3-carboxamide], in series [1], the “reduction of HHQ production” value is 54% and the “reduction of PQS production” value is on record as 37%. Further, the IC50 in series [2] was 2000 nM.

As to `Nc1cccc(F)c1C(=O)O` [Compound 6FABA], the IC50 in series [3] was around 100000 nM.

What is called solubility is the dissolved amount per volume that the medium holds. In the case of `O=[N+]([O-])c1cc(-c2ncc(CNc3cc(Cl)nc(C(F)(F)F)c3)cn2)ccc1Cl` [Compound 08], the IC50 in series [4] fell in the range of 101 to 200 nM. This compound yielded a solubility at 5 min in series [5] above 10 µM. Besides, in series [6], the half-life at 1 μM is above 1 h.

`O=[N+]([O-])c1cccc(-c2ncc(CNc3cc(Cl)nc(C(F)(F)F)c3)cn2)c1` [Compound 09]: the half-inhibitory concentration (IC50) in series [4] fell in the range of 201 to 500 nM. This compound registered a solubility at 5 min in series [5] above 10 µM. Also, the half-life at 1 μM in series [6] lay within 0.517 to 1 h.

In the case of `NC(=O)c1cccc(Nc2ccc3[nH]c(CSc4ccnc(C(F)(F)F)c4)nc3c2)c1` [Compound 36], the solubility at 5 min in series [5] is above 50 µM. This compound registered an IC50 in series [7] of 251 to 1000 nM. Moreover, the half-life at 1 μM in series [6] fell in the range of 0.517 to 1 h.

On to `FC(F)c1cccc(Nc2ccc3[nH]c(CSc4ccnc(C(F)(F)F)c4)nc3c2)c1` [Compound 37], for which the IC50 in series [4] was 101 to 200 nM; in series [7] it was at most 50 nM. This compound also had a solubility at 5 min in series [5] above 10 µM. For the same compound, in series [6], the half-life at 1 μM is above 1 h.

For `Fc1cccc(F)c1Nc1ccc2[nH]c(CSc3ccnc(C(F)(F)F)c3)nc2c1` [Compound 42], the concentration for half-maximal inhibition (IC50) in series [4] was 101 to 200 nM; in series [7], at most 50 nM. The solubility at 5 min in series [5] is above 25 µM.

As for `Fc1ccc(Nc2ccc3[nH]c(CSc4ccnc(C(F)(F)F)c4)nc3c2)c(F)c1` [Compound 45], the IC50 is 101 to 200 nM in series [4] and at most 50 nM in series [7]. The same compound returned a solubility at 5 min in series [5] above 25 µM. Further, the half-life at 1 μM in series [6] was above 1 h.

Consider `Fc1cccc(Nc2ccc3[nH]c(CSc4ccnc(C(F)(F)F)c4)nc3c2)c1F` [Compound 46], for which the IC50 in series [4] was 201 to 500 nM; in series [7], 51 to 250 nM. In addition, the solubility at 5 min in series [5] was above 10 µM.

Take `Fc1cc(Nc2ccccc2)cc2nc(CSc3ccnc(C(F)(F)F)c3)[nH]c12` [Compound 56]: the half-inhibitory concentration (IC50) in series [4] is at most 100 nM; in series [7], at most 50 nM. The compound also returned a solubility at 5 min in series [5] above 25 µM.

On to `Cc1cc(Nc2ccccc2)cc2nc(CSc3ccnc(C(F)(F)F)c3)[nH]c12` [Compound 59], for which the IC50 in series [4] is 101 to 200 nM; in series [7] it was at most 50 nM. Also, the solubility at 5 min in series [5] is above 10 µM.

Consider `Fc1cccc(Nc2ccc3[nH]c(CNc4ccnc(C(F)(F)F)c4)nc3c2)c1` [Compound 61], for which the IC50 in series [4] was at most 100 nM; in series [7], at most 50 nM. This compound returned a solubility at 5 min in series [5] of at least 100 µM.

The values above are taken from patent US12528783B2, “PqsR inverse agonists” (priority 2020, dated 2026).
